# Test results: patent publication US20260297031A1, “HYDROXYLAMINE-BASED BCR-ABL1 INHIBITORS FOR TREATMENT OF CANCER” (University of Georgia Research Foundation, Inc., priority 2023, published 2026)
# Entries after “also recorded” stand apart in the source; their conditions may differ.
# Assays:
# Aqueous solubility = details: phosphate buffer, pH 7.4, aqueous buffer
# Experimental: Solubility Determinations (Independently Performed by Pharmaron Inc., Ninqbo, CN)
# Test compounds and control compounds (progesterone or diclofenac) were initially prepared as 10 mM DMSO stock solutions. […] After such time, plugs and stir sticks were removed and the samples from the solubility sample plate were transferred into the filter plate. All the samples were then filtered and 5 μL of filtrate was taken and added along with 5 μL of DMSO and 490 μL of a 1:1 (v/v) mixture of H2O and acetonitrile containing internal standard (100 nM alprazolam, 200 nM Caffeine and 100 nM tolbutamide) to the plate yielding a final concentration of 3 μM. The samples were then analyzed by LC-MS and diluted according to the peak shape with ultrapure water.
# Filtrate was analyzed and quantified against a standard of known concentration using LC coupled with MS peak identification and quantitation. Solubility values of test compounds and progesterone were calculated as follows and are presented as the mean of n=2 replicates: […]
# [1] = Plasma protein binding by equilibrium dialysis, human plasma; format: in vitro ADME
# Experimental: (§1) Plasma Protein Binding by Equilibrium Dialysis (Independently Performed by Pharmaron Inc., Ninqbo, CN)
# (§2) Initially, 1 mM solutions of test compounds and the control compound (Ketoconzaole) were prepared in DMSO. After this, dialysis membranes were soaked in ultrapure water for 60 min to separate strips, followed by 20% aq. ethanol for 20 min, and finally in a dialysis buffer for 20 min. […] After this, 597 μL of blank plasma solution followed by 3 μL of the working solutions of either test compounds or control compound were added to a new plastic plate or separate plastic tube and the solutions were vortexed at 1,000 rpm for 2 min. Immediately after this, 50 μL of spiked plasma solution suspension was transferred to a 96-well plate to act as T=0 control. The remaining samples were treated in the same manner, whereby all remaining spiked plasma solutions were added to the incubator for the duration of the study.
# (§3) Cells were then loaded with 120 μL of the plasma samples and dialyzed against an equal volume of dialysis buffer (PBS). […] At the end of incubation, the lid was removed and 50 μL of post-dialysis samples were removed from both buffer and plasma solution chambers into a separate 96-well plate for analysis. The plasma solutions (50 μL) were then added to the buffer samples along with an equal volume of PBS (50 μL) to the collected plasma solution samples. The plate was shaken at 1,000 rpm for 2 min and 400 μL of acetonitrile containing an appropriate internal standard was added to precipitate protein and release compound. The samples were then vortexed at 1,000 rpm for an additional 10 min followed by centrifugation at 3,220 g for 30 min. Supernatant (250 μL) was then added to a new 96-well plate and centrifuged again at 3,220 g for 30 min and 100 μL of this supernatant was then added to a new 96-well plate for analysis. The samples were analyzed by LC-MS/MS and 100 μL of distilled water was added to each sample prior to analysis.
# (§4) Concentrations of test compounds and control compound in buffer and plasma solution chambers was determined and percentages of test compounds and control compound bound using the following equations (mean of n=2 replicates): […]
# [2] = Plasma protein binding by equilibrium dialysis, rat plasma; format: in vitro ADME
# Experimental: as §1, §2
# as §3, with “Supernatant (250 μL) was then added to a new 96-well plate and centrifuged again at 3,220 g for 30 min and 100 μL of this supernatant was then added to a new 96-well plate for analysis.” left out
# as §4
# [3] = Metabolic stability in human liver microsomes; format: in vitro ADME; details: human
# Experimental: (§5) Metabolic Stability in Liver Microsomes (Independently Performed by Pharmaron Inc., Ninqbo, CN)
# (§6) This experiment was carried out under two separate set of conditions: i) with Cofactors (NADPH), which consisted of adding 25 μL of 10 mM NADPH to the incubations, giving a final NADPH concentration of 1 mM, and ii) without Cofactors (NADPH), which consisted of adding 25 μL of 100 mM phosphate buffer to the incubations. Under both sets of conditions, the final concentration of microsomes were 0.5 mg/mL. […] Samples were then centrifuged at 3,220 g for 40 min and aliquots of 100 μL of the supernatant were mixed with 100 μL of ultra-pure H2O and analyzed by LC-MS/MS.
# (§7) Peak areas were determined from extracted ion chromatograms. The slope value, k, was determined by linear regression of the natural logarithm of the remaining percentage of the parent drug vs incubation time curve.
# [4] = Metabolic stability in rat liver microsomes; format: in vitro ADME; details: rat
# Experimental: as §5, §6, §7
# [5] = Metabolic stability in human hepatocytes
# Experimental: Metabolic Stability in Hepatocytes (Independently Performed by Pharmaron Inc., Ninqbo, CN)
# After thawing was complete, hepatocytes were transferred into a 50 mL conical tube containing thawing medium and the tube was then placed into a centrifuge and spun at 100 g for 10 min. […] Using AO/PI staining, cells were counted to determine the viable cell density. […] Subsequently, 2 μL of the 100 μM test compounds or control compound solutions was transferred into the respective wells of the 96-well non-coated plate to start the reaction. […] Aliquots of 100 μL of the supernatant were then diluted by 100 μL of ultra-pure water, and the mixture was analyzed by LC-MS/MS.
# All calculations were carried out using Microsoft Excel. Peak areas were determined from extracted ion chromatograms. The in-vitro half-life (t1/2) of parent compound was determined by regression of the percent parent disappearance vs. time curve.
# [6] = Metabolic stability in rat hepatocytes; format: in vitro ADME; details: rat
# Experimental: All calculations were carried out using Microsoft Excel. Peak areas were determined from extracted ion chromatograms.
# Molt-4 cells = assay: In vitro CTG antiproliferative assay, Molt-4; format: cell-based; details: Homo sapiens; Molt-4 (BCR-ABL1−), 72 h
# Experimental: In Vitro CTG Assay (Independently Performed By: Crown Bioscience, Taicanq, CN)
# Cells listed in the table above were initially harvested during logarithmic growth period followed by re-suspension and counting using a Vi cell counter (cell viability was measured by trypan blue exclusion assay). Cells were then diluted and 90 μL cell suspensions were added to 96-well plates. Plates were then incubated overnight in a humidified incubator at 37° C. with 5% CO2. To(Time 0) plate was then taken by 10 μL of culture medium being added to each well followed by 50 μL CellTiter-Glo® Reagent being added. The contents were then mixed for 2 min on an orbital shake to facilitate cell lysis. Next, the plate was incubated at room temperature for 10 min to stabilize luminescent signal. Blackseal black sticker was placed to the bottom of each plate and the luminescence was recorded using EnVision multi label reader. Test compounds and 10 μL of each 10× compound working solutions was added according to the plate inoculation map. Plates were then placed back into the incubator and after 72 h, 50 μL CellTiter-Glo® was added to each well. Contents were then mixed for 2 min on an orbital shaker to facilitate cell lysis. The plate then was incubated at room temperature for 10 min to stabilize luminescent signal. Blackseal black sticker was placed to the bottom of each plate and the luminescence recorded using EnVision multi label reader.
# Relative IC50 was calculated with a dose-response curve fitted using nonlinear regression model with a sigmoidal dose response on GraphPad Prism version 9.5.1. […] The formula for calculating survival rate was (n=3 replicates): […]
# K562 cells = assay: Cell viability assay, K562; format: cell-based
# [7] = test system: P-glycoprotein (P-gp) and/or breast cancer resistance protein (BCRP); details: cited from earlier work
# [8] = LogD7.4 by shake flask method; details: octanol/phosphate buffer, pH 7.4
# Experimental: Test compounds and control compound (Nicardipine) were initially prepared as 10 mM solutions in DMSO and 5 μL of each sample solution was placed into one 96-well plate. […] From the octanol buffer phase, 5 μL was transferred to a new 96-well plate followed by addition of 495 μL of a 1:1 (v/v) mixture of H2O and acetonitrile to yield 100-fold diluted samples. […] Diluted samples were then vortexed for 5 min at 1,000 rpm. 50 μL of buffer samples were then transferred to a new 96-well plate, followed by addition of 450 μL of a 1:1 (v/v) mixture of H2O and acetonitrile mixture containing internal standard yielding 10-fold diluted buffer samples. Samples were vortexed for 5 min at 1,000 rpm and then all samples underwent analysis by LC-MS/MS.
smiles,measurement,setting,value
"COc1cc(Nc2c(C#N)cnc3cc(OCCCN4CCN(C)CC4)c(OC)cc23)c(Cl)cc1Cl [Bosutinib, bosutinib, reference compound]",solubility kinetic at 2 h,Aqueous solubility,14 µM
same,"plasma protein binding, in words",[1]; human,comparable unbound plasma protein fraction
same,% Bound,"[1]; human plasma, 360 min, 5 µM",95.47%
same,% Unbound,"[1]; human plasma, 360 min, 5 µM",4.52%
same,"fu, plasma %","[1]; human, 5 μM, 360 min",4.5%
same,"plasma protein binding, in words",[2],comparable unbound plasma protein fraction
same,"fu, plasma %","[2]; 5 μM, 360 min",7.2%
same,"stability in liver microsomes, in words",[3],significant degradation
same,"stability in liver microsomes, in words",[4],significant degradation
same,"stability in hepatocytes, in words",[5],comparably enhanced stability
same,remaining at 0.5 min,[5]; hepatocytes,100%
same,remaining at 0.5 h,[5]; hepatocytes,79.3%
same,remaining at 1 h,[5]; hepatocytes,54%
same,remaining at 2 h,[5]; hepatocytes,20.7%
same,"stability in hepatocytes, in words",[6],comparably enhanced stability
same,IC50,Molt-4 cells,> 2 µM
same,"antiproliferative activity, in words",K562 cells,picomolar activity
same,efflux transporter substrate (background),[7],P-gp substrates; also recorded: potent substrates for efflux transporters
same,logD,[8],3.1
